This note sets out measurements from paper PMC6264464, “Synthesis and Antifungal Activity of Novel Sulfone Derivatives Containing 1,3,4-Oxadiazole Moieties” (Molecules, 2011).

The subject of one data set is F. oxysporum. In words: Mycelial growth rate / poison plate antifungal test. Type of data set: cell-based. As to conditions: Fusarium oxysporum; for inhibition at 50 µg/mL: 120 h, read-out: Inhibition (%) F. oxysporum; for EC50: read-out: EC50 (µg/mL) F. oxysporum.
In another data set the test system is C. mandshurica. Nature of the data set: Mycelial growth rate / poison plate antifungal test. Type of data set: cell-based, Cytospora mandshurica. As to conditions: Cytospora; for inhibition at 50 µg/mL: 120 h, read-out: Inhibition (%) C. mandshurica; for EC50: read-out: EC50 (µg/mL) C. mandshurica.
Another data set concerns P. infestans. In words: microbe, parasite or virus in culture. As to conditions: Phytophthora infestans, read-out: EC50 (µg/mL) P. infestans. Type of data set: cell-based.
For a further data set, the system named is T. cucumeris. Nature of the data set: microbe, parasite or virus in culture. Type of data set: cell-based. As to conditions: Thanatephorus cucumeris, read-out: EC50 (µg/mL) T. cucumeris.
The test system of another data set is B. cinerea. Nature of the data set: microbe, parasite or virus in culture. The class given is cell-based. As to conditions: Botrytis cinerea, read-out: EC50 (µg/mL) B. cinerea.
For a further data set, the system named is S. sclerotiorum. In words: microbe, parasite or virus in culture. Type of data set: cell-based. As to conditions: Sclerotinia sclerotiorum, read-out: EC50 (µg/mL) S. sclerotiorum.
Another data set deals with C. gloeosporioides. Nature of the data set: microbe, parasite or virus in culture. Type of data set: cell-based. As to conditions: Colletotrichum gloeosporioides, read-out: EC50 (µg/mL) C. gloeosporioides.
For a further data set, the system named is R. solani. In words: microbe, parasite or virus in culture. The class given is cell-based. As to conditions: Rhizoctonia solani, read-out: EC50 (µg/mL) R. solani.
The mark [1] stands for this setting: at 50 µg/mL, PDA, 27 ± 1 °C, 5 days.

Converted amounts (≈) assume the structure as drawn. Read-outs that look alike come from different tables or passages of the source.

As usually defined, the inhibition is the share of the control response that was lost under treatment. By melting point is commonly meant the temperature of the solid-liquid transition. `CS(=O)(=O)c1nnc(-c2ccccc2C(F)(F)F)o1` [Compound 5a, 2-(Methylsulfonyl)-5-(2-(trifluoromethyl)phenyl)-1,3,4-oxadiazole] displayed a melting point of 102 to 104 °C. In addition, the inhibition at 50 µg/mL in the data set with F. oxysporum (setting [1]) was 71.1 ± 7.7%. In addition, the inhibition at 50 µg/mL in the data set on C. mandshurica (setting [1]) came out at 68.3 ± 9.3%.

For `CS(=O)(=O)c1nnc(-c2ccc(F)c(F)c2F)o1` [Compound 5b, 2-(Methylsulfonyl)-5-(2,3,4-trifluorophenyl)-1,3,4-oxadiazole], the melting point was 114 to 115 °C. Also, the inhibition at 50 µg/mL with F. oxysporum (setting [1]) amounted to 97.5 ± 3.3%. Besides, in the data set on C. mandshurica (setting [1]), the inhibition at 50 µg/mL is 89.7 ± 3.1%.

`CS(=O)(=O)c1nnc(-c2ccncc2)o1` [Compound 5c, 2-(Methylsulfonyl)-5-(pyridin-4-yl)-1,3,4-oxadiazole] came in with a melting point of 134 to 136 °C. In the data set with F. oxysporum (setting [1]), the inhibition at 50 µg/mL stood at 72.6 ± 6.4%. Also, in the data set with C. mandshurica (setting [1]), the inhibition at 50 µg/mL is 78.2 ± 4.7%.

As for `CS(=O)(=O)c1nnc(-c2ccccc2F)o1` [Compound 5d, 2-(Methylsulfonyl)-5-(2-fluorophenyl)-1,3,4-oxadiazole], the melting point lay within 97 to 99 °C. Also, the EC50 in the data set on P. infestans came to 14.7 ± 3.23 µg/mL (≈ 60.8 µM). Besides, the inhibition at 50 µg/mL with F. oxysporum (setting [1]) came out at 70.1 ± 4.9%. Moreover, the EC50 in the data set with F. oxysporum was 29.1 ± 7.82 µg/mL (≈ 120 µM). In the data set on T. cucumeris, the EC50 was 10 ± 5.64 µg/mL (≈ 41.3 µM). Besides, the inhibition at 50 µg/mL in the data set on C. mandshurica (setting [1]) stood at 64 ± 1.3%. Also, the EC50 in the data set with C. mandshurica came out at 79.9 ± 14.8 µg/mL (≈ 330 µM). Besides, in the data set with B. cinerea, the EC50 is 5.21 ± 2.05 µg/mL (≈ 21.5 µM). Further, the EC50 in the data set on S. sclerotiorum came out at 8.49 ± 3.51 µg/mL (≈ 35 µM). The EC50 with C. gloeosporioides was 20.2 ± 6.65 µg/mL (≈ 83.5 µM). Moreover, the EC50 in the data set on R. solani turned out to be 6.43 ± 1.34 µg/mL (≈ 26.5 µM).

`CS(=O)(=O)c1nnc(-c2c(F)cccc2F)o1` [Compound 5e, 2-(Methylsulfonyl)-5-(2,6-difluorophenyl)-1,3,4-oxadiazole] gave a melting point of 131 to 132 °C. In the data set with P. infestans, the EC50 was 59.5 ± 16.8 µg/mL (≈ 229 µM). The inhibition at 50 µg/mL in the data set on F. oxysporum (setting [1]) was 98.8 ± 8%. In addition, in the data set on F. oxysporum, the EC50 worked out at 65.8 ± 7.04 µg/mL (≈ 253 µM). Moreover, the EC50 in the data set on T. cucumeris worked out at 23.4 ± 4.76 µg/mL (≈ 89.7 µM). Further, the inhibition at 50 µg/mL in the data set on C. mandshurica (setting [1]) was greater than 90%. For the same compound, in the data set on C. mandshurica, the EC50 came to 38.3 ± 3.21 µg/mL (≈ 147 µM). In the data set with B. cinerea, the EC50 worked out at 8.25 ± 0.85 µg/mL (≈ 31.7 µM). In the data set with S. sclerotiorum, the EC50 amounted to 15 ± 6.83 µg/mL (≈ 57.5 µM). Moreover, the EC50 in the data set on C. gloeosporioides came out at 26.1 ± 7.32 µg/mL (≈ 100 µM). The EC50 in the data set on R. solani was 21.2 ± 4.12 µg/mL (≈ 81.6 µM).

The compound `CS(=O)(=O)c1nnc(-c2c(Cl)cccc2Cl)o1` [Compound 5f, 2-(Methylsulfonyl)-5-(2,6-dichlorophenyl)-1,3,4-oxadiazole] gave a melting point of 126 to 128 °C. Besides, in the data set with P. infestans, the EC50 stood at 42.9 ± 7.38 µg/mL (≈ 146 µM). Besides, the inhibition at 50 µg/mL in the data set with F. oxysporum (setting [1]) is 94 ± 4.1%. Further, the EC50 in the data set with F. oxysporum is 85.4 ± 17.9 µg/mL (≈ 291 µM). Besides, in the data set with T. cucumeris, the EC50 worked out at 25.2 ± 2.34 µg/mL (≈ 86.1 µM). Besides, the inhibition at 50 µg/mL in the data set on C. mandshurica (setting [1]) is greater than 90%. The EC50 in the data set on C. mandshurica stood at 98.2 ± 8.35 µg/mL (≈ 335 µM). Moreover, the EC50 in the data set with B. cinerea was found to be 8.03 ± 0.86 µg/mL (≈ 27.4 µM). In addition, the EC50 in the data set with S. sclerotiorum was 17.2 ± 4.72 µg/mL (≈ 58.7 µM). In addition, the EC50 in the data set with C. gloeosporioides is 33.1 ± 8.29 µg/mL (≈ 113 µM). Moreover, the EC50 in the data set on R. solani stood at 16.2 ± 9.76 µg/mL (≈ 55.1 µM).

For the compound `COc1ccccc1-c1nnc(S(C)(=O)=O)o1` [Compound 5g, 2-(Methylsulfonyl)-5-(2-methoxyphenyl)-1,3,4-oxadiazole], the melting point was in the range of 127 to 129 °C. Besides, the inhibition at 50 µg/mL in the data set on F. oxysporum (setting [1]) was 89.6 ± 4.5%. For the same compound, the inhibition at 50 µg/mL in the data set on C. mandshurica (setting [1]) was greater than 90%.

With `Cc1ccccc1-c1nnc(S(C)(=O)=O)o1` [Compound 5h, 2-(Methylsulfonyl)-5-(2-methylphenyl)-1,3,4-oxadiazole], the melting point was in the range of 117 to 119 °C. The inhibition at 50 µg/mL in the data set on F. oxysporum (setting [1]) turned out to be 74.6 ± 8.5%. The inhibition at 50 µg/mL in the data set on C. mandshurica (setting [1]) was greater than 90%.

The compound `CS(=O)(=O)c1nnc(-c2ccccc2Br)o1` [Compound 5i, 2-(Methylsulfonyl)-5-(2-bromophenyl)-1,3,4-oxadiazole] showed a melting point of 134 to 135 °C. Also, in the data set with P. infestans, the EC50 came to 49.6 ± 9.39 µg/mL (≈ 164 µM). The inhibition at 50 µg/mL in the data set with F. oxysporum (setting [1]) was 77 ± 6.6%. Moreover, the EC50 in the data set on F. oxysporum was 29.9 ± 1.31 µg/mL (≈ 98.6 µM). Further, the EC50 in the data set on T. cucumeris came out at 24.8 ± 4.29 µg/mL (≈ 81.7 µM). Moreover, the inhibition at 50 µg/mL with C. mandshurica (setting [1]) was 79.6 ± 7.1%. For the same compound, the EC50 with C. mandshurica stood at 44.5 ± 3.56 µg/mL (≈ 147 µM). In the data set with B. cinerea, the EC50 came to 21 ± 2.01 µg/mL (≈ 69.3 µM). Moreover, the EC50 in the data set with S. sclerotiorum was found to be 14.8 ± 1.02 µg/mL (≈ 48.8 µM). For the same compound, the EC50 with C. gloeosporioides was 21.9 ± 2.93 µg/mL (≈ 72.4 µM). Also, the EC50 in the data set on R. solani is 20 ± 1.28 µg/mL (≈ 66 µM).

For the compound `CS(=O)(=O)c1nnc(-c2c(F)cccc2Cl)o1` [Compound 5j, 2-(Methylsulfonyl)-5-(2-chloro-6-fluorophenyl)-1,3,4-oxadiazole], the melting point lay within 121 to 123 °C. Further, the inhibition at 50 µg/mL in the data set with F. oxysporum (setting [1]) is 67.1 ± 4.8%. Further, the inhibition at 50 µg/mL with C. mandshurica (setting [1]) was determined as 64 ± 2.6%.

Regarding `Cc1cc(O)no1` [Hymexazol, reference compound], the EC50 in the data set with P. infestans was 26.5 ± 1.42 µg/mL (≈ 267 µM); with F. oxysporum, 27.9 ± 1.02 µg/mL (≈ 282 µM); in the data set on T. cucumeris it was 32.2 ± 5.82 µg/mL (≈ 325 µM); in the data set with C. mandshurica it was 39.3 ± 2.79 µg/mL (≈ 396 µM); with B. cinerea, 25.2 ± 6.12 µg/mL (≈ 255 µM); with S. sclerotiorum, 7.76 ± 2.98 µg/mL (≈ 78.3 µM). The EC50 in the data set with C. gloeosporioides was determined as 37.6 ± 3.16 µg/mL (≈ 379 µM); in the data set on R. solani it was 38.6 ± 0.45 µg/mL (≈ 390 µM). Also, the inhibition at 50 µg/mL in the data set on F. oxysporum came out at 58.4 ± 0.8%; in the data set on C. mandshurica it was 57.3 ± 0.3%.
